Laboratory results taken from BindingDB's records for doi:10.1016/j.ejmech.2019.05.051 (Zhejiang Academy of Medical Sciences, 2019).

Assay: Inhibition of rat brain cortex AChE using acetylthiocholine iodide as substrate incubated for 15 mins by spectrophotometry

Row | Compound | IC50 [µM]
1 | CCN(C)C(=O)Oc1cc(C(C)N(C)C)cc2cccnc12 (stereo not given) | 1.2
2 | CCN(C)C(=O)Oc1cc(C(C)N(CC)CC)cc2cccnc12 (stereo not given) | 41.2
3 | CCN(C)C(=O)Oc1cc(C(C)N2CCCCC2)cc2cccnc12 (stereo not given) | 29
4 | CCN(C)C(=O)Oc1cc(C(C)N2CCN(C)CC2)cc2cccnc12 (stereo not given) | 54.7
5 | CC(c1cc(OC(=O)N2CCOCC2)c2ncccc2c1)N1CCOCC1 (stereo not given) | 8.3
6 | CC(c1cc(OC(=O)N(C)C)c2ncccc2c1)N(C)C (stereo not given) | 16.3
7 | CC(c1cc(OC(=O)N2CCOCC2)c2ncccc2c1)N(C)C (stereo not given) | 8.8
8 | CCN(C)C(=O)Oc1cc(C(C)N(C)CC)cc2cccnc12 (stereo not given) | 40.7
9 | CCN(C)C(=O)Oc1cc(C(C)N2CCCC2)cc2cccnc12 (stereo not given) | 18.1
10 | CC(c1cc(OC(=O)N2CCCC2)c2ncccc2c1)N(C)C (stereo not given) | 28.6
11 | CCN(CC)C(=O)Oc1cc(C(C)N(C)C)cc2cccnc12 (stereo not given) | 13.6
12 | CCN(C)C(=O)Oc1cccc([C@H](C)N(C)C)c1 [2,3-dihydroxybutanedioic acid; 3-[(1S)-1-(dimethylamino)ethyl]phenyl N-ethyl-N-methylcarbamate] | 9
13 | CC(c1cc(OC(=O)N2CCCC2)c2ncccc2c1)N1CCOCC1 (stereo not given) | 48.6
14 | CC(c1cc(OC(=O)N2CCCCC2)c2ncccc2c1)N(C)C (stereo not given) | 20.6
15 | CC(c1cc(OC(=O)N(C)C)c2ncccc2c1)N1CCOCC1 (stereo not given) | 69.9
